Patent publication US20240261422A1, “ANTHRACYCLINE ANTIBODY CONJUGATES” (SEAGEN INC., priority 2021, published 2024)

Assays:
HL60, AML = assay: In vitro growth inhibition (CellTiter-Glo, 96 h), HL60; type: cell-based; conditions: cOKT9 ADCs, average DAR 8, 96 h
Method: (§1) Cell culture of cell lines as listed in Table 2-4 in log-phase growth were seeded in 96-well plates and grown for 24 h in cell culture media containing 150 μL RPMI 1640 supplemented with 20% FBS (see Mol. Cancer Ther., 2016, 15(5), 938-945 and Mol. Cancer Ther., 2018, 17(8), 1752-1760). Serial dilutions of free drugs or antibody-drug conjugates (final concentration between 0.004 nM and 1 μM) in cell culture media were prepared at 4× working concentrations; 50 μL of each dilution was added to the 96-well plates. Following addition of the drug or ADC, the cells were incubated with test articles (free drugs or ADCs) for 4 d at 37° C. After 96 h, growth inhibition was assessed by CellTiter-Glo® (Promega, Madison, WI) and luminescence was measured on a plate reader (brand, model).
(§2) Cells were treated for 96 hours with anthracycline analogues listed in Table 2, and then assessed for viability as described in the procedures as described above. […] ND denotes value not determined with that assay for the specified compound.
(§3) ADCs were prepared by full reduction of interchain disulfides to reveal 8-conjugatable cysteines/antibody, and subsequent alkylation with the maleimide-containing drug-linkers (Compounds 14, 18, 21, 24, 29, 32, 33, 34, and 48) according to the procedures described in Mol. Cancer Ther. 2018, 17(8). 1752-1760. Conjugates of antibody cOKT9 were prepared with anthracycline linkers. Cancer cell lines were treated with cOKT9 ADCs (average DAR of 8:1) for 96 h and then assessed for viability. […] ND denotes value not determined with that assay for the specified compound.

L540cy, HL = assay: In vitro growth inhibition (CellTiter-Glo, 96 h), L540cy; type: cell-based
Method: as §1, §2, §3
(§4) Anti-CD30 ADCs comprising cAC10 antibody conjugated to drug-linkers 24, 32, 29, 18, 14, and 48 with an average DAR of 4 were prepared for evaluation on a CD30-expressing lymphoma cell line panel. […] Anti-CD30 conjugates bearing the PNU linkers 24, 32, 29, 18, and 14 were active on L540cy, DEL, and Karpas299 lymphoma cell lines, and conjugate 48 was active on L540cy and DEL cell lines, with IC50s ranging from 0.2-4 ng/mL.

L428, MDR + HL = assay: In vitro growth inhibition (CellTiter-Glo, 96 h), L428; type: cell-based; conditions: cAC10 (anti-CD30) ADCs, average DAR 4
Method: as §1, §4

[1] = system: DEL/BVR anaplastic large cell lymphoma xenograft; assay: DEL/BVR MDR+, CD30+ anaplastic large cell lymphoma xenograft model; type: in vivo, SCID mice; conditions: cAC10 S239C ADCs, average DAR 2; 3 mg/kg single dose i.p.
Method: (§5) All experiments were conducted in concordance with the Animal Care and Use Committee in a facility fully accredited by the Association for Assessment and Accreditation of Laboratory Animal Care. Efficacy experiments were conducted using the L540cy Hodgkin's lymphoma and DEL/BVR anaplastic large cell lymphoma xenograft models (Mol. Cancer Ther., 2018, 17(8), 1752-1760). Tumor cells, as a cell suspension, were implanted subcutaneously in immune-compromised SCID female mice. Upon tumor engraftment, the mice were randomized into study groups when the average tumor volume reached about 100 mm^3. The ADCs were dosed once via intraperitoneal injection. Tumor volume as a function of time was determined using the formula (L×W2)/2. Animals were euthanized when tumor volumes reached 1000 mm^3.
Anti-CD30 conjugates bearing PNU drug-linkers 29, 18, and 14 were further evaluated in a DEL/BVR MDR+, CD30+ anaplastic large cell lymphoma xenograft model. cAC10 antibody with the S239C mutation is conjugated to the PNU drug linkers with an average DAR of 2 to minimize the effects of ADC pharmacokinetics. Tumor-bearing mice were administered a 3 mg/kg single dose intraperitoneally (i.p.) of test article once the average tumor volume reached 100 mm^3 (typically on day 4). […] However, the conjugate comprising PNU linker 29 appeared to be non-efficacious, and only provided minimal tumor growth delay (FIG. 2). Untreated mice were used as negative controls.

HL60/RV, MDR + AML = assay: In vitro growth inhibition (CellTiter-Glo, 96 h), HL60/RV; type: cell-based; conditions: cOKT9 ADCs, average DAR 8, 96 h
Method: as §1, §2, §3

[2] = system: L540cy Hodgkin's lymphoma xenograft; assay: L540cy CD30+ Hodgkin lymphoma xenograft model; type: in vivo, SCID mice; conditions: cAC10 S239C ADCs, average DAR 2; single dose i.p. at about 100 mm^3
Method: as §5
Anti-CD30 conjugates bearing PNU drug-linkers 29, 18, and 14 were evaluated in a CD30-expressing xenograft model as described above. cAC10 antibody with the S239C mutation is conjugated to the PNU drug linkers with an average DAR of 2 to minimize the effects of ADC pharmacokinetics. Tumor-bearing mice were administered a single dose intraperitoneally (i.p.) of test article once the average tumor volume reached 100 mm^3 (typically on day 8). Untreated mice were used as negative controls.

Ramos, CD30 − NHL = assay: In vitro growth inhibition (CellTiter-Glo, 96 h), Ramos; type: cell-based; conditions: cAC10 (anti-CD30) ADCs, average DAR 4
Method: as §1, §4

786-O, MDR + RCC = assay: In vitro growth inhibition (CellTiter-Glo, 96 h), 786-O; type: cell-based; conditions: cOKT9 ADCs, average DAR 8, 96 h
Method: as §1, §2, §3

BxPC3, PancCa = assay: In vitro growth inhibition (CellTiter-Glo, 96 h), BxPC3; type: cell-based; conditions: cOKT9 ADCs, average DAR 8, 96 h
Method: as §1, §2, §3

DEL, ALCL = assay: In vitro growth inhibition (CellTiter-Glo, 96 h), DEL; type: cell-based; conditions: cAC10 (anti-CD30) ADCs, average DAR 4
Method: as §1, §4

[3] = system: L540cy, 786-O, BxPC3, HL60, HL60/RV; conditions: for IC50s of cOKT9 conjugates: 24 h
Karpas299, ALCL = assay: In vitro growth inhibition (CellTiter-Glo, 96 h), Karpas299; type: cell-based; conditions: cAC10 (anti-CD30) ADCs, average DAR 4
Method: as §1, §4

[4] = system: CD30-expressing lymphoma cell line panel; type: cell-based; conditions: cAC10 ADC DAR 4
Method: as §1, §4

[5] = cAC10 (anti-CD30) ADCs, average DAR 4
[6] = cOKT9 ADCs, average DAR 8, 96 h

Row | SMILES | IC50 (ng/mL) HL60, AML (HL60, AML) | IC50 (ng/mL) L540cy, HL (L540cy, HL; [5]) | IC50 (ng/mL) L540cy, HL (L540cy, HL; [6]) | IC50 (ng/mL) L428, MDR + HL (L428, MDR + HL) | antitumor activity, DEL/BVR xenograft (FIG. 2) [1] | IC50 (ng/mL) HL60/RV, MDR + AML (HL60/RV, MDR + AML) | antitumor activity, L540cy xenograft (FIG. 1) [2] | IC50 (ng/mL) Ramos, CD30 − NHL (Ramos, CD30 − NHL) | IC50 (ng/mL) 786-O, MDR + RCC (786-O, MDR + RCC) | IC50 (ng/mL) BxPC3, PancCa (BxPC3, PancCa) | IC50 (ng/mL) DEL, ALCL (DEL, ALCL) | IC50s of cOKT9 conjugates [3] [ng/mL] | IC50 (ng/mL) Karpas299, ALCL (Karpas299, ALCL) | IC50 values of anti-CD30 conjugate, highest dose tested [4] | activity of cOKT9 conjugates across the panel of cancer cell lines ([3]; cOKT9 ADCs DAR 8, result in words)
1 | COc1cccc2c1C(=O)c1c(O)c3c(c(O)c1C2=O)C[C@@](O)(C(=O)NCCNC(=O)CNC(=O)CNC(=O)CNC(=O)CCN1C(=O)C=CC1=O)C[C@@H]3O[C@H]1C[C@H]2[C@H](O[C@@H]3[C@@H](OC)OCCN32)[C@H](C)O1 [Compound 18, (2S,4S)—N-(15-(2,5-dioxo-2,5-dihydro-1H-pyrrol-1-yl)-4,7,10,13-tetraoxo-3,6,9,12-tetraazapentadecyl)-2,5,12-trihydroxy-7-methoxy-4-(((1S,3R,4aS,9S,9aR,10aS)-9-methoxy-1-methyloctahydro-1H-pyrano[4′,3′:4,5]oxazolo[2,3-c][1,4]oxazin-3-yl)oxy)-6,11-dioxo-1,2,3,4,6,11-hexahydrotetracene-2-carboxamide] | B (10 ng/mL≤IC50<100 ng/mL) | B (1 ng/mL≤IC50<10 ng/mL) | A (IC50<10 ng/mL) | D (100 ng/mL≤IC50<500 ng/mL) | efficacious in suppressing tumor growth | D (IC50≥1000 ng/mL) | active with a majority of animals in a complete regression | D (100 ng/mL≤IC50<500 ng/mL) | A (IC50<10 ng/mL) | A (IC50<10 ng/mL) | A (IC50<1 ng/mL) | 1 to 150 | A (IC50<1 ng/mL) | – | –
2 | COc1cccc2c1C(=O)c1c(O)c3c(c(O)c1C2=O)C[C@@](O)(C(=O)NCCNC(=O)CNC(=O)CNC(=O)CNC(=O)OCc1ccc(NC(=O)[C@H](C)NC(=O)[C@@H](NC(=O)CCN2C(=O)C=CC2=O)C(C)C)cc1)C[C@@H]3O[C@H]1C[C@H]2[C@H](O[C@@H]3[C@@H](OC)OCCN32)[C@H](C)O1 [Compound 29, 4-((S)-2-((S)-2-(3-(2,5-dioxo-2,5-dihydro-1H-pyrrol-1-yl)propanamido)-3-methylbutanamido)propanamido)benzyl (1,6,9,12-tetraoxo-1-((2S,4S)-2,5,12-trihydroxy-7-methoxy-4-(((1S,3R,4aS,9S,9aR,10aS)-9-methoxy-1-methyloctahydro-1H-pyrano[4′,3′:4,5]oxazolo[2,3-c][1,4]oxazin-3-yl)oxy)-6,11-dioxo-1,2,3,4,6,11-hexahydrotetracen-2-yl)-2,5,8,11-tetraazatridecan-13-yl)carbamate] | B (10 ng/mL≤IC50<100 ng/mL) | B (1 ng/mL≤IC50<10 ng/mL) | A (IC50<10 ng/mL) | E (IC50≥500 ng/mL) | non-efficacious | D (IC50≥1000 ng/mL) | active with a majority of animals in a complete regression | E (IC50≥500 ng/mL) | B (10 ng/mL≤IC50<100 ng/mL) | A (IC50<10 ng/mL) | A (IC50<1 ng/mL) | 1 to 150 | A (IC50<1 ng/mL) | – | –
3 | COc1cccc2c1C(=O)c1c(O)c3c(c(O)c1C2=O)C[C@@](O)(C(=O)NCCNC(=O)CNC(=O)CNC(=O)CNC(=O)CCN1C(=O)C=CC1=O)C[C@@H]3O[C@H]1C[C@H](N2CCO[C@H](OC)C2)[C@H](O)[C@H](C)O1 [Compound 33, (2S,4S)—N-(15-(2,5-dioxo-2,5-dihydro-1H-pyrrol-1-yl)-4,7,10,13-tetraoxo-3,6,9,12-tetraazapentadecyl)-2,5,12-trihydroxy-4-(((2R,4S,5S,6S)-5-hydroxy-4-((S)-2-methoxymorpholino)-6-methyltetrahydro-2H-pyran-2-yl)oxy)-7-methoxy-6,11-dioxo-1,2,3,4,6,11-hexahydrotetracene-2-carboxamide] | D (IC50≥1000 ng/mL) | – | D (IC50≥1000 ng/mL) | – | – | D (IC50≥1000 ng/mL) | – | – | D (IC50≥1000 ng/mL) | D (IC50≥1000 ng/mL) | – | – | – | > 20,000 ng/ml | inactive
